Reference: patent EP4800012A1, “COMPOUND ACTING AS PARP7 INHIBITOR” (Dovetree Medicines Unus, Inc., priority 2023, dated 2025)
pIC50: −log10 of the molar value. Like-named read-outs stand apart in the source and are kept apart here.

Assays:
PARP7 [1] = target: T1, PARP7 (Homo sapiens, UniProt Q7Z3E1); test: Inhibition of the compound on PARP7 protein activity (ADP-ribosylation, chemiluminescence); assay type: biochemical; details: Histone H1 coated plate, Biotin-Labeled NAD+, 2 h at room temperature, chemiluminescence; read-out: PARP7 activity inhibition IC50
T1 construct: purchased BPS 80527
T1 sequence (Q7Z3E1 1-657): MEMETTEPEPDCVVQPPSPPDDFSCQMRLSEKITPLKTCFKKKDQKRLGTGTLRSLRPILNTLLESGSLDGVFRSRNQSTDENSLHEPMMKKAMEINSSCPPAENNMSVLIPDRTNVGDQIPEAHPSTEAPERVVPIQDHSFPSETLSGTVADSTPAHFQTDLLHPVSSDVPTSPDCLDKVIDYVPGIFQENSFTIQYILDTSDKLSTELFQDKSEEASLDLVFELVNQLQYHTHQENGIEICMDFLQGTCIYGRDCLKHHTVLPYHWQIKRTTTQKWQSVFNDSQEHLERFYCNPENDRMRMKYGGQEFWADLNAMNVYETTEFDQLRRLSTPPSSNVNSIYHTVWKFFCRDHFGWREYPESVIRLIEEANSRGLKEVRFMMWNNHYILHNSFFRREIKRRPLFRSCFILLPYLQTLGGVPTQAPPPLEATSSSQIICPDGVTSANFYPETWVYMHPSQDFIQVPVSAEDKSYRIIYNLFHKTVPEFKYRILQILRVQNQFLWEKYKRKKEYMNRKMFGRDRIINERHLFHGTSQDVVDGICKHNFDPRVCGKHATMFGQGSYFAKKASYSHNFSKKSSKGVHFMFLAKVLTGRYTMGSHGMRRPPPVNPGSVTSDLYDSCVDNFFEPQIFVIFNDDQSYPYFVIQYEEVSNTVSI

NCI-H1373 cells = test: Inhibition on NCI-H1373 cell proliferation (Cell-Titer-Glo); assay type: cell-based; details: Homo sapiens, read-out: NCI-H1373 cell proliferation inhibition IC50
Description: The inhibitory effect of the compound on PARP7 was evaluated by testing the inhibitory effect of the compound on NCI-H1373 cell proliferation.
NCI-H1373 cells (ATCC, CRL-5866) were cultured in a complete medium, namely, a RPMI-1640 medium (Gibco, 22400089) containing 10% fetal bovine serum (Corning, 35-081-CV).
Negative control wells and positive control wells were added with 50 nL DMSO (Sigma, D2650), respectively.
In "Day 0" detection plate, NCI-H1373 cells were seeded at a density of 600 cells/well (50 µL) in a complete medium into the Day 0 test wells of a 384-well detection plate (Grenier, 781091). Then, 25 µL of Cell-Titer-Glo reagent (Promega, G7573) was added to each well, followed by centrifugation at 1000 rpm at room temperature for 1 minute and incubation at room temperature under shaded conditions for 10 min. Chemiluminescence signals were collected using an Envision (Perkin Elmer, EnVision 2105) to obtain the average value of the Day 0 test values.
In "compound detection plate", NCI-H1373 cells were seeded at a density of 600 cells/well (50 µL) in a complete medium into the negative control wells and the compound detection wells of a 384-well detection plate (Grenier, 781091), and 50 µL of cell culture medium was added to the positive control wells, followed by centrifugation at 1000 rpm at room temperature for 1 minute and placing in a cell incubator at 37°C, 5% CO2 for incubation for 6 days. […] Chemiluminescence signals were collected using an Envision (Perkin Elmer, EnVision 2105). The test values for each compound well, negative control well, and positive control well were obtained.
The proliferation inhibition ratio formula is as follows: [formula]
The average value of the negative control = the average value of the Day 6 test values of each negative control well minus the average value of the Day 0 test values
The average value of the positive control = the average value of the Day 6 test values of each positive control well
The average value of the compound test = (the Day 6 test value of compound test well 1 + the Day 6 test value of compound test well 2)/2 - the average value of the Day 0 test values

PARP7 [2] = target: T1, PARP7; test: PARP7 TR-FRET binding inhibition (displacement of probe RBN011147); details: TR-FRET, Biotin-labeled probe RBN011147; read-out: PARP7 binding inhibition IC50
Description: The ability of the compound to substitute the probe RBN011147 (Wigle et al., 2020, Cell Chemical Biology 27, 877-887) was tested by a TR-FRET method, and IC50 was calculated to evaluate the binding ability of the compound to PARP7. […]

[3] = 144 h, NCI-H1373 cells, incubation for 6 days, Cell-Titer-Glo

Compound | pIC50 (PARP7 [1]) | pIC50 (NCI-H1373 cells; [3]) | pIC50 (PARP7 [2]) | pIC50 (NCI-H1373 cells; NCI-H1373, 144 h)
CC(CCCNC(=O)c1ccc(-c2ncc(N(C)C3CC3)s2)cc1)Nc1cn[nH]c(=O)c1C(F)(F)F (stereo not drawn) [Example 56] | > 8.52 | 6.00 to 6.52 | > 8.00 | –
CC(CCCNC(=O)c1ccc(-c2ncc(N(C)C)s2)cc1)Nc1cn[nH]c(=O)c1C(F)(F)F (stereo not drawn) [Example 57] | 8.00 to 8.52 | – | > 8.00 | 5.52 to 6.00
CC(CCCNC(=O)c1ccc(-c2ncc(N3CCCCC3)s2)cc1)Nc1cn[nH]c(=O)c1C(F)(F)F (stereo not drawn) [Example 58] | 8.00 to 8.52 | < 5.52 | > 8.00 | –
CC(CCCNC(=O)c1ccc2c(=O)n(C)cnc2c1)Nc1cn[nH]c(=O)c1C(F)(F)F (stereo not drawn) [Example 59] | 7.00 to 7.52 | < 5.52 | 7.00 to 7.52 | –
CC(CCCNC(=O)c1ccc(-c2cscn2)nc1)Nc1cn[nH]c(=O)c1C(F)(F)F (stereo not drawn) [Example 60] | > 8.52 | 6.00 to 6.52 | > 8.00 | –
CC(CCCNC(=O)c1ccc(-n2cc(C(F)(F)F)cn2)cc1)Nc1cn[nH]c(=O)c1C(F)(F)F (stereo not drawn) [Example 61] | > 8.52 | > 6.52 | > 8.00 | –
CC(CCCNC(=O)c1ccc(-n2cccn2)c(F)c1)Nc1cn[nH]c(=O)c1C(F)(F)F (stereo not drawn) [Example 62] | 7.00 to 7.52 | < 5.52 | 7.00 to 7.52 | –
CC(CCCNC(=O)c1ccc(-c2ncc(N(C)C)cn2)cc1)Nc1cn[nH]c(=O)c1C(F)(F)F (stereo not drawn) [Example 63] | > 8.52 | > 6.52 | > 8.00 | –
CC(CCCNC(=O)c1ccc(-c2ccc(=O)n(C)n2)cc1)Nc1cn[nH]c(=O)c1C(F)(F)F (stereo not drawn) [Example 64] | 7.52 to 8.00 | < 5.52 | < 7.00 | –
COc1nc(-c2ccc(C(=O)NCCCC(C)Nc3cn[nH]c(=O)c3C(F)(F)F)cc2)cs1 (stereo not drawn) [Example 65] | 7.00 to 7.52 | < 5.52 | 7.00 to 7.52 | –
Cc1cc(=O)n(C)nc1-c1ccc(C(=O)NCCCC(C)Nc2cn[nH]c(=O)c2C(F)(F)F)cc1 (stereo not drawn) [Example 66] | 7.00 to 7.52 | < 5.52 | < 7.00 | –
CC(CCCNC(=O)c1ccc(-c2ncc(C#N)cc2F)cc1)Nc1cn[nH]c(=O)c1C(F)(F)F (stereo not drawn) [Example 67] | > 8.52 | 6.00 to 6.52 | > 8.00 | –
Cc1cc(-c2ccc(C(=O)NCCCC(C)Nc3cn[nH]c(=O)c3C(F)(F)F)cc2)ncc1C#N (stereo not drawn) [Example 68] | > 8.52 | 6.00 to 6.52 | > 8.00 | –
CC(CCCNC(=O)c1ncc(-c2ncc(N3CC(F)C3)cn2)cc1F)Nc1cn[nH]c(=O)c1C(F)(F)F (stereo not drawn) [Example 72] | > 8.52 | 6.00 to 6.52 | > 8.00 | –
CC(CCCNC(=O)c1ncc(-c2ncc(C(F)(F)F)cn2)cc1F)Nc1cn[nH]c(=O)c1C(F)(F)F (stereo not drawn) [Example 73] | > 8.52 | 6.00 to 6.52 | > 8.00 | –
CC(CCCNC(=O)c1ncc(-c2ncc(C(F)F)s2)cc1F)Nc1cn[nH]c(=O)c1C(F)(F)F (stereo not drawn) [Example 74] | > 8.52 | < 5.52 | > 8.00 | –
CC(CCCNC(=O)c1ncc(-c2ncc(C(F)(F)F)s2)cc1F)Nc1cn[nH]c(=O)c1C(F)(F)F (stereo not drawn) [Example 75] | > 8.52 | > 6.52 | > 8.00 | –
Cc1c(CCC(=O)Nc2ncc(-c3ncc(C(F)(F)F)cn3)cc2F)c[nH]c(=O)c1C(F)(F)F [Example 76] | 8.00 to 8.52 | < 5.52 | 7.52 to 8.00 | –
CC(CCCNC(=O)c1ccc(-c2ncc(C(F)(F)F)s2)cc1F)Nc1cn[nH]c(=O)c1C(F)(F)F (stereo not drawn) [Example 77] | > 8.52 | > 6.52 | > 8.00 | –
